Like-named read-outs stand apart in the source and are kept apart here.
Legend:
[1] = target: LC3B (Homo sapiens, UniProt Q9GZQ8); conditions: LC3B:ligand molar ratio 1:2
[2] = system: RPE-1 GFP-LC3B-RPF-LC3∆G reporter cell line; assay: Autophagy flux assay; format: cell-based; conditions: rebuttal letter
Excerpt: LC3/GABARAP in vitro, but no attempts are made to replicate the previously reported cellular activity of these compounds. It would be beneficial to know whether these compounds have any effect on autophagy in the authors’ hands, and therefore could act by alternative mechanisms, or whether they […]
Response: We were very concerned that the ligands used for ATTEC development might induce general toxicity in cell lines, as they are based on drugs used in oncology (such as the kinesin inhibitor 10O5) and the isoxazole scaffold often used in the development of multi-targeted kinase inhibitors. However, we have now investigated compounds 1-4 in autophagy flux assays using the RPE-1 GFP-LC3B-RPF-LC3∆G reporter cell line (single clone) as […]
reported in [PMID:37558952].
(RR_Figure 6). The authors of the first manuscript reporting these ligands [PMID: 31666698]
However, due to the potent activity of 8F20 on KIF11, which will have profound effects on cell trafficking and growth, and DCAF11 (AN1, [PMID: 38036533]), we find it unlikely that the effects on autophagy are due to LC3/GABARAP modulation. Due to the lack of target (LC3/GABARAP) binding in vitro and the […]
of this review but have excluded the data in the manuscript.
RR_figure 5: Autophagy flux measurement for 10O5 and AN2. No induction of autophagy or effects (right panels, assessed by Incucyte (Sartorius) life cell imaging) on cell growth was […]
RR_figure 6: Autophagy flux measurement for 8F20 and AN1 show changes in autophagy flux […]
It is not clear how many biological replicates have been performed. For example, the figure legends […]

For `Cc1ccc(C(=O)N(CCCN)[C@@H](c2nc3cc(Cl)ccc3c(=O)n2Cc2ccccc2)C(C)C)cc1` [compound 3, (R)-N-(3-aminopropyl)-N-(1-(3-benzyl-7-chloro-4-oxo-3,4-dihydroquinazolin-2-yl)−2-methylpropyl)−4-methylbenzamide], the CSP ([1]; LC3B residue A75) was 0.00171 ppm, the CSP ([1]; LC3B residue A78) was 0.000906 ppm and the CSP ([1]; LC3B residue A114) was 0.00141 ppm. For the same molecule, the CSP ([1]; LC3B residue D19) was 0.000707 ppm, the CSP ([1]; LC3B residue D48) was 0.010 ppm and the CSP ([1]; LC3B residue D56) was 0.00434 ppm. It also gave a CSP ([1]; LC3B residue D104) of 0.002 ppm, a CSP ([1]; LC3B residue D106) of 0.005 ppm and a CSP ([1]; LC3B residue E14) of 0.00152 ppm. It also gave a CSP ([1]; LC3B residue E18) of 0.003 ppm, a CSP ([1]; LC3B residue E25) of 0.00212 ppm and a CSP ([1]; LC3B residue E36) of 0.00158 ppm. For the same molecule, the CSP ([1]; LC3B residue E41) was 0.0011 ppm, the CSP ([1]; LC3B residue E62) was 0.00213 ppm and the CSP ([1]; LC3B residue E97) was 0.005 ppm. The CSP ([1]; LC3B residue E100) was 0.004 ppm, the CSP ([1]; LC3B residue E102) was 0.000721 ppm and the CSP ([1]; LC3B residue E105) was 0.00232 ppm. It also gave a CSP ([1]; LC3B residue E117) of 0.00224 ppm, a CSP ([1]; LC3B residue F07) of 0.00141 ppm and a CSP ([1]; LC3B residue F13) of 0.000721 ppm. It also gave a CSP ([1]; LC3B residue F52) of 0.011 ppm, a CSP ([1]; LC3B residue F108) of 0.006 ppm and a CSP ([1]; LC3B residue F119) of 0.00255 ppm. The CSP ([1]; LC3B residue G40, estimated) was 0.002 ppm, the CSP ([1]; LC3B residue G107) was 0.002 ppm and the CSP ([1]; LC3B residue H27) was 0.00453 ppm. For the same molecule, the CSP ([1]; LC3B residue H57) was 0.00237 ppm, the CSP ([1]; LC3B residue I23) was 0.00158 ppm and the CSP ([1]; LC3B residue I31) was 0.00281 ppm. The CSP ([1]; LC3B residue I34) was 0.00571 ppm, the CSP ([1]; LC3B residue I35) was 0.00158 ppm and the CSP ([1]; LC3B residue I64) was 0.00474 ppm. The CSP ([1]; LC3B residue I66) was 0.000721 ppm, the CSP ([1]; LC3B residue I67) was 0.003 ppm and the CSP ([1]; LC3B residue K08) was 0.00364 ppm. The CSP ([1]; LC3B residue K30) was 0.000762 ppm, the CSP ([1]; LC3B residue K39) was 0.00212 ppm and the CSP ([1]; LC3B residue K42) was 0.00255 ppm. It also gave a CSP ([1]; LC3B residue K49) of 0.00665 ppm, a CSP ([1]; LC3B residue K51) of 0.00356 ppm and a CSP ([1]; LC3B residue K65) of 0.00216 ppm. The CSP ([1]; LC3B residue K103) was 0.00165 ppm, the CSP ([1]; LC3B residue L22) was 0.002 ppm and the CSP ([1]; LC3B residue L44) was 0.006 ppm. For the same molecule, the CSP ([1]; LC3B residue L47) was 0.009 ppm, the CSP ([1]; LC3B residue L53) was 0.007 ppm and the CSP ([1]; LC3B residue L63) was 0.004 ppm. It also gave a CSP ([1]; LC3B residue L71) of 0.000566 ppm, a CSP ([1]; LC3B residue L73) of 0.000849 ppm and a CSP ([1]; LC3B residue L109) of 0.00144 ppm. It also gave a CSP ([1]; LC3B residue M01, estimated) of 0.002 ppm, a CSP ([1]; LC3B residue M60) of 0.00216 ppm and a CSP ([1]; LC3B residue M111) of 0.00255 ppm. The CSP ([1]; LC3B residue N59) was 0.009 ppm, the CSP ([1]; LC3B residue N74) was 0.00173 ppm and the CSP ([1]; LC3B residue N76) was 0.00171 ppm. It also gave a CSP ([1]; LC3B residue P02, estimated) of 0.002 ppm, a CSP ([1]; LC3B residue P28, estimated) of 0.005 ppm and a CSP ([1]; LC3B residue P32, estimated) of 0.003 ppm. The CSP ([1]; LC3B residue P45, estimated) was 0.005 ppm, the CSP ([1]; LC3B residue P55, estimated) was 0.006 ppm and the CSP ([1]; LC3B residue Q09) was 0.00173 ppm. It also gave a CSP ([1]; LC3B residue Q15) of 0.00158 ppm, a CSP ([1]; LC3B residue Q26) of 0.003 ppm and a CSP ([1]; LC3B residue Q43) of 0.00158 ppm. It also gave a CSP ([1]; LC3B residue Q72) of 0.00243 ppm, a CSP ([1]; LC3B residue Q77) of 0.0011 ppm and a CSP ([1]; LC3B residue Q116) of 0.00181 ppm. It also gave a CSP ([1]; LC3B residue R10) of 0.00165 ppm, a CSP ([1]; LC3B residue R11) of 0.0024 ppm and a CSP ([1]; LC3B residue R16) of 0.00181 ppm. It also gave a CSP ([1]; LC3B residue R21) of 0.002 ppm, a CSP ([1]; LC3B residue R24) of 0.000424 ppm and a CSP ([1]; LC3B residue R37) of 0.00181 ppm. It also gave a CSP ([1]; LC3B residue R68) of 0.00643 ppm, a CSP ([1]; LC3B residue R69) of 0.00362 ppm and a CSP ([1]; LC3B residue R70) of 0.00566 ppm. It also gave a CSP ([1]; LC3B residue S03, estimated) of 0.002 ppm, a CSP ([1]; LC3B residue S61) of 0.00376 ppm and a CSP ([1]; LC3B residue S96) of 0.004 ppm. It also gave a CSP ([1]; LC3B residue S101) of 0.00148 ppm, a CSP ([1]; LC3B residue S115) of 0.00122 ppm and a CSP ([1]; LC3B residue T06) of 0.00255 ppm. The CSP ([1]; LC3B residue T12) was 0.006 ppm, the CSP ([1]; LC3B residue T29, estimated) was 0.002 ppm and the CSP ([1]; LC3B residue T50) was 0.008 ppm. The CSP ([1]; LC3B residue T118) was 0.00152 ppm, the CSP ([1]; LC3B residue V17) was 0.0011 ppm and the CSP ([1]; LC3B residue V20) was 0.00281 ppm. For the same molecule, the CSP ([1]; LC3B residue V33) was 0.00472 ppm, the CSP ([1]; LC3B residue V46) was 0.00449 ppm and the CSP ([1]; LC3B residue V54) was 0.009 ppm. It also gave a CSP ([1]; LC3B residue V58) of 0.00542 ppm, a CSP ([1]; LC3B residue V98) of 0.00173 ppm and a CSP ([1]; LC3B residue V112) of 0.00638 ppm. It also gave a CSP ([1]; LC3B residue Y38) of 0.00165 ppm, a CSP ([1]; LC3B residue Y99) of 0.00144 ppm and a CSP ([1]; LC3B residue Y110) of 0.00214 ppm. For the same molecule, the CSP ([1]; LC3B residue Y113) was 0.00232 ppm, the “autophagy induction (autophagy flux)” value [2] was “significant autophagy activation” and the “effects on cell growth (Incucyte life cell imaging)” value [2] was “profound effects on cell growth”.

— publication PMC11589570, “Critical assessment of LC3/GABARAP ligands used for degrader development and ligandability of LC3/GABARAP binding pockets” (Nature Communications, 2024)
